Measured values as given in patent publication EP0773287A1, “Immortalised embryonic hyppocampal cells and their use” (BAYER AG, priority 1995, dated 1997).
Like-named read-outs stand apart in the source and are kept apart here.

Columns and labels:
Assay type in all cases: cell-based, murine
HC e/n XVB cells = assay: Whole-cell patch-clamp recording of ligand-activated currents; conditions: for ligand-activated currents (electrophysiological recordings): membrane potential clamped to -70mV
Protocol: (§1) Electrophysiological setup: Membrane currents were measured with the patchclamp technique in the whole-cell recording configuration (Hamill et al. 1981, Pfluegers Arch. 391:85-100). Current signals were amplified with conventional electronics (EPC-9 amplifier, HEKA Elektronik GmbH, Lambrecht, Germany), filtered at 10kHz, and sampled at 5 kHz by an interface connected to an IBM AT-compatible computer system, which also served as a stimulus generator.
(§2) Solutions and electrodes: The standard bathing solution contained (in mM): Nacl 150, KCL 5, MgCl2 1.8, HEPES 5, and glucose 10. In some experiments an equimolar amount of NaCl was replaced by 5mM BaCl2. Recording pipettes had resistances about 5MΩ (Hilgenberg, Malsfeld, Germany). The pipettes contained (in mM): KCL 140, CaCl2 0.5, EGTA 5, MgCl2 2, and HEPES 10. The pH was adjusted to 7.4. In some experiments the pipette solution was designed to minimize the contribution of voltage-activated currents. In this case, investigating the ligand-activated currents, the pipette solution contained (in mM): CsCl 140, EGTA 10, and HEPES 10.
(§3) Ligands were dissolved in the extracellular saline solution and applied via an U-tube application system. To record ligand-induced currents, the membrane potential was clamped to -70mV. For measurements of voltage-activated currents, cells were held at -70mV and every second the membrane was stepped through a 50 msec. de- or hyperpolarising test pulse to a potential between -170 and +20 mV.

HNMMCV14.1.A [1] = assay: as above
Protocol: as §1, §2, §3

HC e/n XV.B cells = assay: Ca2+-imaging (Fura-2) of intracellular calcium after application of agonists
Protocol: (§4) Fluorescent Probe: Dynamic changes of intracellular calcium concentration were measured using the Fura-2 fluorescent probe (Roe et al. 1990, Cell Calcium 11:63-73). This fluorescent dye was chosen because of its selectivity, high quantum yield and extinction co-efficient. Fura-2 permeates the living cell as a acetoxymethylester and becomes trapped within the cell after hydrolysis by intracellular esterases. The calcium-sensitive free acid of Fura-2 is able to bind to calcium ions inside the cell. Fura-2 has an excitation maximum at 380 nm and the Fura2/calcium complex peaks at 340 nm. A change in intracellular calcium concentration was calculated by recording fluorescent video images at wavelengths of 340nm and 380nm excitation and 510nm emission and by dividing the grey values of the digitized video images of 380nm from 340nm.
(§5) Loading cells with Fura-2: A stock solution with 2mM Fura-2-acetoxymethylester in dimethylsulfoxide (DMSO) was diluted to 5-10 µM with serum free Minimal Essential Medium (MEM, Gibco) containing 1.5% bovine serum albumin and 5 mM calcium chloride. The cells were incubated in a Falcon 96 well plate for 45-60 minutes at 37°C. Subsequently the cells were washed twice in N-(2-Hydroxyethyl)piperazine-N'-(2-ethanesulfonic acid) (HEPES, 5mM) buffered Tyrode solution (HEPES buffered salt solution containing 130 mM NaCl, 5 mM KCl, 2 mM CaCl2, 1 mM MgCl2, 5mM NaHCO3, 11 mM Glucose).
(§6) Imaging procedure: 100 µl of Tyrode buffer was added to the plate wells and the cells were sequencially exposed to light at 340 nm and 380 nm under a fluorescent microscope (Nikon Diaphot). The exposition time was 100 ms. A series of video images at 3 second intervals was acquired and stored as digitised pictures in the image boards of an image analysis computer (Leica, Quantimet 570). After the acquisition of 8 images the test substances were applied. The grey levels of the cells, which correspond to the fluorescence intensity, were measured in the recorded video images. The ratio was determined by dividing the measured grey levels of the "380 nm images" by the grey levels of the "340 nm images" either from averaged images or from individual cells. For averaged results, the grey levels were measured over the whole images.
(§7) The cells were loaded with Fura 2/AM between day 3 and 7 in culture. A number of agonists were tested for their ability to activate specific receptors on the cell surface which lead to a rise in intracellular calcium. The rise in calcium concentration in the cytoplasm can occur after activation of specific calcium channels in the cell membrane, after activation of neurotransmitter receptors directly coupled to ion channels that are permeable to calcium ions (i.e. NMDA or AMPA type glutamate receptors), or by activation of receptors, which propagate the signal through the activation of specific G-proteins, which regulate the activity of different enzymes in the interior of the cell (Connor, Cell Calcium 14 (1993), 185-200; Crouch and Hendry, Medical Res. Rev. 13 (1993), 105-123). The activation of phospholipase C generates the second messengers diacylglycerol and inositoltriphosphate from phospholipids in the cell membrane. The binding of inositoltriphosphate to receptors localised on internal vesicles which store calcium ions leads to a transient rise in the concentration of calcium ions in the cytoplasm (Berridge, M.J. 1993, Nature 361: 315-325).

HNMMCV11.2.0 = assay: as above
Protocol: as §4, §5, §6, §7

HNMMCV13.1.E = assay: as above
Protocol: as §4, §5, §6, §7

HNMMCV13.1.F = assay: as above
Protocol: as §4, §5, §6, §7

HNMMCV14.1.A [2] = assay: as above
Protocol: as §4, §5, §6, §7

[3] = tested on: metabotropic glutamate receptor(s) (mGluR) expressed by HNMMCV14.1A cells; assay: Phosphoinositide hydrolysis: accumulation of 3H-inositol phosphates; conditions: for EC50: read-out: EC50 inositolphosphate accumulation
Protocol: Phosphoinositide hydrolysis was determined by measuring the accumulation of ^3H-inositol phosphates. The cells were plated in 48-well plates (Costar) at a density of 10000 cells per well and incubated for 4-5 days at 37°C, 7% CO2. Then the cells were labeled by incubation with 4 µCi of myo-2-^3H-inositol per ml medium (specific activity: […]: Amersham). After 24 h LiCl (10 mM final concentration) was added to the cells for 1 h. Agonists were then added at the concentrations indicated. The incubation was stopped after 1 h by replacing the medium with 200 µl ice-cold methanol. 400 µl of destilled water was added and the sample was directly applied to AG-1X8 ion exchange columns (AG-1X8 resin: BioRad). Free inositol and glycerophosphoryl-inositol were washed away with 16 ml destilled water followed by 10 ml 5 mM disodium-tetraborate, 60 mM sodium formate. Total ^3H-inositol phosphates (IP1, IP2, IP3) were eluted with 7 ml of 100 mM formic acid, 1 M ammonium formate. Radioactivity of the eluted ^3H-inositol phosphates was determined by liquid scintillation counting after addition of 13 ml liquid scintillation cocktail (Ultima Gold: Canberra Packard). Measurements were performed in triplicates for each experimental point. Untreated controls were set as 100% and the other values calculated in relation to this.
The columns were prepared as follows: 1 ml pipet tips were filled with one glass bead (Roth) per tip before adding 500 µl AG-1X8 resin. The resin was compressed with air and 270 µl seasand was applied. Until use they were stored at 4°C.

[4] = differentiated HC e/n XVB cells, AMPA 100µM, NMDA 1mM, kainate 1mM, glutamate 1mM
[5] = 14.1.A, membrane potential clamped to -70mV
[6] = differentiated HC e/n XV.B cells
[7] = HNMMCV13.1.F, concentrations (glutamate 10µM to 10 mM; AMPA, kainic acid, serotonine, dopamine, carbachol up to 1mM; NMDA up to 500µM)
[8] = HC e/n XV.B cells, state of differentiation not stated, up to 1mM
[9] = HNMMCV14.1A cells, agonist 1 h, LiCl 10 mM

NCCCC(=O)O [GABA]
ligand-activated currents (electrophysiological recordings) (HC e/n XVB cells; XV. B/ - EGF): +++ (+++: 70-100% positive cells) | ligand-activated currents (electrophysiological recordings) (HC e/n XVB cells; XV. B): + (+: 10-30% positive cells) | ligand-induced inward currents (result in words) (HC e/n XVB cells; [4]): prominent resonses | ligand-activated currents (electrophysiological recordings) (HNMMCV14.1.A [1]; [5]): ++ (++: 30-70% positive cells)

CC(=O)OCC[N+](C)(C)C [Acetylcholine, acetylcholine]
ligand-activated currents (electrophysiological recordings) (HC e/n XVB cells; XV. B/ - EGF): - | ligand-activated currents (electrophysiological recordings) (HNMMCV14.1.A [1]; [5]): + (+: 10-30% positive cells)

L-carboxycyclopropylglycin [L-CCG 1]
rise in intracellular calcium concentration (result in words) (HC e/n XV.B cells; [6]): weak signals | rise in intracellular calcium concentration (result in words) (HNMMCV11.2.0; HNMMCV11.2.0): strong | rise in intracellular calcium concentration (result in words) (HNMMCV13.1.E; HNMMCV13.1.E): strong | rise in intracellular calcium concentration (result in words) (HNMMCV13.1.F; [7]): strong | rise in intracellular calcium concentration (result in words) (HNMMCV14.1.A [2]; HNMMCV14.1.A): strong

Cc1onc(O)c1CC(N)C(=O)O (stereo not shown) [AMPA, ∝-amino-3-hydroxy-5-methyl-4-isoxazol-propionic acid]
rise in intracellular calcium concentration (result in words) (HC e/n XV.B cells; undifferentiated HC e/n XV.B cells): did not result in a transient rise | rise in intracellular calcium concentration (result in words) (HNMMCV11.2.0; HNMMCV11.2.0): did not result in a transient rise | rise in intracellular calcium concentration (result in words) (HNMMCV13.1.E; HNMMCV13.1.E): did not result in a transient rise | rise in intracellular calcium concentration (result in words) (HNMMCV13.1.F; [7]): did not result in a transient rise | rise in intracellular calcium concentration (result in words) (HNMMCV14.1.A [2]; HNMMCV14.1.A): did not result in a transient rise | ligand-activated currents (electrophysiological recordings) (HC e/n XVB cells; XV. B/ - EGF): + (+: 10-30% positive cells) | ligand-induced inward currents (result in words) (HC e/n XVB cells; [4]): evoked responses

NCCc1c[nH]c2ccc(O)cc12 [Serotonine]
rise in intracellular calcium concentration (result in words) (HC e/n XV.B cells; [8]): did not lead to a specific signal | rise in intracellular calcium concentration (result in words) (HNMMCV11.2.0; HNMMCV11.2.0): did not lead to a specific signal | rise in intracellular calcium concentration (result in words) (HNMMCV13.1.E; HNMMCV13.1.E): did not lead to a specific signal | rise in intracellular calcium concentration (result in words) (HNMMCV13.1.F; [7]): did not lead to a specific signal | rise in intracellular calcium concentration (result in words) (HNMMCV14.1.A [2]; HNMMCV14.1.A): did not lead to a specific signal

C[N+](C)(C)CCOC(N)=O [Carbachol]
rise in intracellular calcium concentration (result in words) (HC e/n XV.B cells; [8]): reproducible signal

N[C@@]1(C(=O)O)CC[C@@H](C(=O)O)C1 [t-ACPD, 1S3R-aminocyclopentane-1,3-dicarboxylate]
rise in intracellular calcium concentration (result in words) (HC e/n XV.B cells; [6]): weak signals | rise in intracellular calcium concentration (result in words) (HNMMCV11.2.0; HNMMCV11.2.0): strong | rise in intracellular calcium concentration (result in words) (HNMMCV13.1.E; HNMMCV13.1.E): strong | rise in intracellular calcium concentration (result in words) (HNMMCV13.1.F; [7]): strong | rise in intracellular calcium concentration (result in words) (HNMMCV14.1.A [2]; HNMMCV14.1.A): strong | effect on inositolphosphate accumulation (result in words) ([3]; HNMMCV14.1A cells): concentration dependent increase | maximum response of inositolphosphate accumulation compared with glutamate ([3]; HNMMCV14.1A cells): slightly weaker | EC50 [3, 9]: 20 µM

CN[C@H](CC(=O)O)C(=O)O [NMDA, N-methyl-D-aspartate]
ligand-activated currents (electrophysiological recordings) (HC e/n XVB cells; XV. B/ - EGF): ++ (++: 30-70% positive cells)

C=C(C)[C@H]1CN[C@H](C(=O)O)[C@H]1CC(=O)O [Kainate, kainic acid]
rise in intracellular calcium concentration (result in words) (HC e/n XV.B cells): reproducible calcium signal | rise in intracellular calcium concentration (result in words) (HNMMCV11.2.0): did not result in a transient rise | transient calcium currents after the application of agonists and antagonists (Calcium - Imaging) (HNMMCV11.2.0): - | rise in intracellular calcium concentration (result in words) (HNMMCV13.1.E): did not result in a transient rise | transient calcium currents after the application of agonists and antagonists (Calcium - Imaging) (HNMMCV13.1.E): - | rise in intracellular calcium concentration (result in words) (HNMMCV13.1.F): did not result in a transient rise | transient calcium currents after the application of agonists and antagonists (Calcium - Imaging) (HNMMCV13.1.F): - | rise in intracellular calcium concentration (result in words) (HNMMCV14.1.A [2]): did not result in a transient rise | transient calcium currents after the application of agonists and antagonists (Calcium - Imaging) (HNMMCV14.1.A [2]): - | ligand-induced inward currents (result in words) (HC e/n XVB cells): evoked responses | ligand-activated currents (electrophysiological recordings) (HNMMCV14.1.A [1]): + / -

N[C@@H](Cn1oc(=O)[nH]c1=O)C(=O)O [Quisqualate, quisqualate]
effect on inositolphosphate accumulation (result in words) ([3]; HNMMCV14.1A cells): concentration dependent increase | maximum response of inositolphosphate accumulation compared with glutamate ([3]; HNMMCV14.1A cells): slightly weaker | EC50 [3, 9]: 0.02 µM

NCCc1ccc(O)c(O)c1 [Dopamine, dopamine]
rise in intracellular calcium concentration (result in words) (HC e/n XV.B cells; [8]): did not lead to a specific signal | rise in intracellular calcium concentration (result in words) (HNMMCV11.2.0; HNMMCV11.2.0): did not lead to a specific signal | rise in intracellular calcium concentration (result in words) (HNMMCV13.1.E; HNMMCV13.1.E): did not lead to a specific signal | rise in intracellular calcium concentration (result in words) (HNMMCV13.1.F; [7]): did not lead to a specific signal | rise in intracellular calcium concentration (result in words) (HNMMCV14.1.A [2]; HNMMCV14.1.A): did not lead to a specific signal

N#Cc1cc2[nH]c(=O)c(=O)[nH]c2cc1[N+](=O)[O-] [CNQX, 6-nitro-7-cyanochinoxalin-2,3-dione]
antagonism of the calcium signals recorded after application of glutamate (HNMMCV13.1.F; glutamate 100µM, CNQX 100µM, cells not given, Table 5 gives 13.1.F): not antagonised

NCc1cc(=O)[nH]o1 [muscimol]
effect on the GABA-response (HC e/n XVB cells; HC e/n XVB cells): mimicked

NC(C(=O)O)c1cc(O)no1 (stereo not shown) [ibotenate]
effect on inositolphosphate accumulation (result in words) [3]: concentration dependent increase | maximum response of inositolphosphate accumulation compared with glutamate [3]: slightly weaker | EC50 [3]: 5 µM

CN1CCc2cc3c(cc2[C@H]1[C@@H]1OC(=O)c2c1ccc1c2OCO1)OCO3 [bicuculline]
effect on the GABA-response (HC e/n XVB cells): blocked
